Experimental data published in patent US8710080B2, “Prodrugs of [4 [4-(5-Aminomethyl-2-fluoro-phenyl)-piperidin-1-yl]-(1H-pyrrolo-pyridin-yl)-methanones and synthesis thereof” (Sanofi, priority 2009, dated 2014).
Where a name gives a salt, the structure may show the parent alone.

Experiments:
[1] = Rat plasma stability (incubation in rat plasma, LC-MS/MS); type: in vitro ADME; settings: 100 ng/mL, 37° C.
Method: The rat plasma stability of Example 1 was tested by incubation of the compound in rat plasma at 100 ng/mL followed by LC-MS/MS bioanalysis to measure remaining parent compound relative to the time zero condition (no incubation). Concentrations of 1 remaining at 1 and 4 hr after incubation at 37° C. were 19% and 0%, indicating 1 was very unstable under these conditions. Since 1 was designed as a prodrug, plasma instability is a desirable attribute.

beta-Tryptase = biological target: T1, beta-Tryptase (Homo sapiens, UniProt Q15661); assay: beta-Tryptase inhibition, chromogenic enzyme assay (S2366 substrate); type: biochemical; settings: activity of parent drug against beta-Tryptase; Ki calculated from IC50
T1 construct: host or cells: yeast cells
Excerpt: Inhibition of this catalytic activity may be measured by the in vitro enzyme assay and the cellular assay.
Tryptase inhibition activity is confirmed using either isolated human lung tryptase or recombinant human beta tryptase expressed in yeast cells. Essentially equivalent results are obtained using isolated native enzyme or the expressed enzyme. The assay procedure employs a 96 well microplate (Costar 3590) using L-pyroglutamyl-L-prolyl-L-arginine-para-nitroanilide (S2366: Quadratech) as substrate (essentially as described by McEuen et. al. Biochem Pharm, 1996, 52, pages 331-340). Assays are performed at room temperature using 0.5 mM substrate (2×Km) and the microplate is read on a microplate reader (Beckman Biomek Plate reader) at 405 nm wavelength.
Materials and Methods for Tryptase Primary Screen (Chromogenic Assay)
S2366 (Stock solutions of 2.5 mM).
Purified recombinant beta Tryptase Stocks of 310 μg/mL. […]
The protocol is essentially the same as above except that the compound is added in duplicates at the following final concentrations: 0.01, 0.03, 0.1, 0.3, 1, 3, 10 μM (All dilutions carried out manually). […] From the IC50 value, the Ki can be calculated using the following formula: Ki=IC50/(1+[Substrate]/Km).

T1 sequence (Q15661 31-275): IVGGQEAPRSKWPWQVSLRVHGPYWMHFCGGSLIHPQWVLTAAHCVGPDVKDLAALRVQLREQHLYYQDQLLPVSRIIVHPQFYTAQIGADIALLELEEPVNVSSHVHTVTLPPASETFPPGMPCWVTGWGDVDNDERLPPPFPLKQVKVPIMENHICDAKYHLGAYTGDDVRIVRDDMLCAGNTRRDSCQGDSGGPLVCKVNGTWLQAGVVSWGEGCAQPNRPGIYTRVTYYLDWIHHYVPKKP

| Structure (SMILES) | Rat plasma stability (in words) [1] | Concentration remaining relative to time zero ([1]; 1 hr incubation) [%] | Concentration remaining relative to time zero ([1]; 4 hr incubation) [%] | Ki (beta-Tryptase) [µM] |
| --- | --- | --- | --- | --- |
| COCCn1cc(C(=O)N2CCC(c3cc(CNC(=O)CNC(=O)[C@@H](N)C(C)C)ccc3F)CC2)c2c(C(=O)N3CCOCC3)cccc21.Cl [Example 1, (S)-2-Amino-N-[(4-fluoro-3-{1-[1-(2-methoxy-ethyl)-4-(morpholine-4-carbonyl)-1H-indole-3-carbonyl]-piperidin-4-yl}-benzylcarbamoyl)-methyl]-3-methyl-butyramide hydrochloride] | very unstable | 19 | 0 |  |
| COCCn1cc(C(=O)N2CCC(c3cc(CN)ccc3F)CC2)c2c(C(=O)N3CCOCC3)cccc21 [Parent of 1, [4-(5-Aminomethyl-2-fluoro-phenyl)-piperidin-1-yl]-[1-(2-methoxy-ethyl)-4-(morpholine-4-carbonyl)-1H-indol-3-yl]-methanone hydrochloride] |  |  |  | 0.029 |
| COCCn1cc(C(=O)N2CCC(c3cc(CN)ccc3F)CC2)c2c(OC(F)(F)F)ccc(F)c21 [Parent of 4, [4-(5-aminomethyl-2-fluoro-phenyl)-piperidin-1-yl]-[7-fluoro-1-(2-methoxy-ethyl)-4-trifluoromethoxy-1H-indol-3-yl]-methanone hydrochloride] |  |  |  | 0.038 |
